According to US4680310A, “Tetrahydronaphthalene derivatives” (Hoffmann-La Roche Inc., priority 1984, dated 1987):

Legend:
[1] = test system: ^3 H-nifedipine (or ^3 H-nitrendipine) receptor binding on homogenates or partially-cleaned membranes of rabbit or guinea pig heart; assay: ^3 H-Nifedipine binding determinations (test A); details: nifedipine established as 100%
Method: A. ^3 H-Nifedipine binding determinations:
The determination is carried out on homogenates or on partially-cleaned membranes of rabbit or guinea pig heart. The reaction mixture (0.3 ml) consists of 0.2-0.8 mg of membrane protein, 1 nM of ^3 H-nifedipine (or 0.25 nM of ^3 H-nitrendipine) and various concentrations of the test substances. The incubation lasts 30 minutes at 25° C. or 37° C. and is stopped by dilution with the incubation buffer; a filtration is subsequently carried out. The filter-bound radioactivity is measured with a scintillation counter. Specific binding (i.e. receptor-bound) is defined as the differences between total and unspecific-bound radioactivity. The unspecific binding is determined in the presence of an excess of non-radioactive nifedipine (1 μM).
The activity (potency) of a compound in this test is defined by the IC50 and % maximum inhibition values (% max. inhibition). The IC50 is the substance concentration (in mol/l) which produces a half-maximum inhibition of the specific ^3 H-nifedipine (or ^3 H-nitrendipine) binding. The maximum inhibition of the specific binding is given by the % maximum inhibition value; this value is established as 100% for the reference compound nifedipine. Both parameters are extrapolated from a concentration-binding curve.

[2] = test system: Coronary artery strips of dogs (KCl contracture; tension-dependent calcium channel); assay: Relaxation of KCl contracture in coronary artery strips of dogs (test B); format: cell-based, dog; details: Canis lupus familiaris, KCl 84.7 mM, 37° C., read-out: IC50 (half-maximum relaxation of a KCl contracture)
Method: B. Coronary artery strips of dogs:
In this experiment spiral strips (2-2.5 mm wide and 10 mm long) of coronary arteries of dogs are cut and hung up in an organ chamber under an initial tension of 1.5 g. These strips are pre-incubated for a duration of about 1 to 2 hours in Krebs-Henseleit buffer solution which is gassed with Oxycarbon (a mixture of 95% oxygen and 5% carbon dioxide) at 37° C. The relaxing activity of one of these substances is subsequently tested on a KCl (84.7 mM) contracture by the addition of increasing concentrations of the test substance to the organ chamber. The calcium channel-blocking activity of the test substances can therefore be established, as the KCl contracture occurs exclusively by means of calcium flow through the tension-dependent calcium channel.
The activity of a test substance in this test is given by the IC50 value. This value is defined as the substance concentration (in mol/l) which produces a half-maximum relaxation of a KCl contracture. This value is also extrapolated from the resulting concentration-activity curve.

narcotized dog = assay: Haemodynamic parameters in the narcotized dog (test C); format: in vivo; details: 0.1 mg/kg i.v.
Description: C. Haemodynamic parameters in the narcotized dog:
The 4 most important measurement parameters (with respective measurement units) of the haemodynamic experiment are: (1) CBF: Coronary Blood Flow (in ml/min)--the velocity of blood flow through the coronary arteries; (2) HR: heart rate (in beats/min)--the heart frequency; (3) BP: blood pressure (in mm Hg)--the blood pressure; and (4) dp/dt: rate of increase in left ventricular pressure (in mm Hg/sec) as a measurement of the contractility force of the heart. The values are given as the % maximum variation from the initial value (Δ%) per dosage administered.
There is thus obtained not only an overall picture of the activity of the substance, but also an estimation as to the potential selectivity for a specific part of the circulatory system in the entire organism. After the administration of an anaesthetic, the dog is intubated and respired artificially. Blood pH, pCO2, pO2 and haemoglobin are measured hourly with a blood-gas analyser. The blood pressure (systolic and diastolic) is measured with a probe in the aorta abdominalis. The heart frequency is recorded by means of a tachometer, which is disengaged from the pressure pulse. For the other measurements the heart must first be opened in order that a probe can be inserted in the left ventricle (heart chamber) for the pressure measurements (dp/dt). The coronary blood flow is measured with a flowing probe in the left coronary artery (descendens).

| Structure (SMILES) | % max inhib. (maximum inhibition of specific binding) [1] [%] | IC50 [2] [nM] | BP (blood pressure), % maximum variation from the initial value (narcotized dog) | CBF (Coronary Blood Flow), % maximum variation from the initial value (narcotized dog) | HR (heart rate), % maximum variation from the initial value (narcotized dog) | dp/dt (rate of increase in left ventricular pressure), % maximum variation from the initial value (narcotized dog) |
| --- | --- | --- | --- | --- | --- | --- |
| COCC(=O)O[C@]1(CCN(C)CCc2ccc(OC)c(OC)c2)CCc2cc(F)ccc2[C@@H]1C(C)C [B, [1S,2S]-2-[2-[(3,4-dimethoxyphenethyl)methylamino]ethyl]-6-fluoro-1,2,3,4-tetrahydro-1-isopropyl-2-naphthyl methoxyacetate] | 100 | 6.1 | -23 Δ % | +100 Δ % | -20 Δ % | +13 Δ % |
| COc1ccc(CCN(C)CC[C@@]2(OC(C)=O)CCc3cc(OC)c(OC)cc3[C@@H]2C(C)C)cc1OC (relative stereo) [D, 6,7-dimethoxy-2-[2-[(3,4-dimethoxyphenethyl)methylamino]ethyl]-1,2,3,4-tetrahydro-1α-isopropyl-2α-naphthyl acetate] | 82 | 87 | -9 Δ % | +58 Δ % | -15 Δ % | +3 Δ % |
| COCC(=O)O[C@]1(CCN(C)CCc2ccc(OC)c(OC)c2)CCc2cc(F)ccc2[C@@H]1C(C)C (relative stereo) [A, 2-[2-[(3,4-Dimethoxyphenethyl)methylamino]ethyl]-6-fluoro-1,2,3,4-tetrahydro-1α-isopropyl-2α-naphthyl methoxyacetate] | 77 | 2.8 | -18 Δ % | +93 Δ % | -3 Δ % | -5 Δ % |

Continued by falling IC50 [2], values first:

| % max inhib. (maximum inhibition of specific binding) [1] [%] | IC50 [2] [nM] | Structure (SMILES) | BP (blood pressure), % maximum variation from the initial value (narcotized dog) | CBF (Coronary Blood Flow), % maximum variation from the initial value (narcotized dog) | HR (heart rate), % maximum variation from the initial value (narcotized dog) | dp/dt (rate of increase in left ventricular pressure), % maximum variation from the initial value (narcotized dog) |
| --- | --- | --- | --- | --- | --- | --- |
| 73 | 78 | COCC(=O)O[C@@]1(CCN(C)CCc2ccc(OC)c(OC)c2)CCc2cc(F)ccc2[C@H]1C(C)C [C, [1R,2R2-[2[(3,4Dimethoxyphenethyl)methylamino]ethyl6-fluoro-1,2,3,4-tetraydro-1-isopropyl-2-napthyl methoxyacetate] | -16 Δ % | +58 Δ % | -5 Δ % | +26 Δ % |
| 88 | 20 | COCC(=O)O[C@]1(CCN(C)CCc2ccc(OC)c(OC)c2)CCc2cc(OC)c(OC)cc2[C@@H]1C(C)C (relative stereo) [E, 6,7-dimethoxy-2-[2-[(3,4-dimethoxyphenethyl)methylamino]ethyl]-1,2,3,4-tetrahydro-1α-isopropyl-2α-naphthyl methoxyacetate] | -12 Δ % | +65 Δ % | -7 Δ % | +22 Δ % |
